Molecules are shown by their SMILES. Structures can show the parent of a compound that is named as a salt.

This note sets out measurements from patent publication US9339038B2, “Herbicidal composition” (priority 2012, dated 2016).

What all share (assay type): in vivo
The test system of data set [1] is green kyllinga (Kyllinga brevifolia Rottb. var. leiolepis). The experiment in a line: Test Example 1: foliar treatment of potted green kyllinga in heading stage, visual growth inhibition rate. From the text:
When the herbicidal activity in a case where two active ingredients are combined, is larger than the simple sum of the respective herbicidal activities of the two active ingredients (the expected activity), it is called a synergistic effect. The activity expected by the combination of two active ingredients can be calculated as follows (Colby S. R., “Weed”, vol. 15, p. 20-22, 1967). E=(α+β)−(αβ)/100 where α: growth inhibition rate when treated with x (g/ha) of herbicide X,
β: growth inhibition rate when treated with y (g/ha) of herbicide Y,
E: growth inhibition rate expected when treated with x (g/ha) of herbicide X and y (g/ha) of herbicide Y.
That is, when the actual growth inhibition rate (measured value) is larger than the growth inhibition rate by the above calculation (calculated value), the activity by the combination can be regarded as showing a synergistic effect.
Upland field soil was put into a 1/1,000,000 ha pot, and rhizomes of green kyllinga (Kyllinga brevifolia Rottb. var. leiolepis) were planted. On the 59th day after planting, to the green kyllinga in heading stage, predetermined amounts of EC formulation containing pyridate as an active ingredient (tradename: Pyridate 600EC, manufactured by BCP), WG formulation containing flazasulfuron as an active ingredient (tradename: SHIBAGEN DF, manufactured by Ishihara Sangyo Kaisha, Ltd.), WG formulation containing trifloxysulfuron Na salt as an active ingredient (tradename: Monument WG, manufactured by Syngenta Japan K.K.), SC formulation containing nicosulfuron as an active ingredient (tradename: ONEHOPE NYUZAI, manufactured by Ishihara Sangyo Kaisha, Ltd.), WG formulation containing halosulfuron-methyl as an active ingredient (tradename: INPOOL DF, manufactured by Nissan Chemical Industries, Ltd.) and WG formulation containing chlorimuron-ethyl as an active ingredient (tradename: ATTRACTIVE, manufactured by MARUWA Biochemical Co., Ltd.) were diluted with water in an amount corresponding to 2,000 L/ha, and applied for foliar treatment by a small sprayer.
On the 14th day after treatment, the state of growth of the green kyllinga was visually observed to determine the growth inhibition rate (%) in accordance with the following evaluation standard. The growth inhibition rate (%) (measured value) and the growth inhibition rate (%) (calculated value) calculated by the Colby's formula are shown in Table 1.
Growth inhibition rate (%)=0 (equivalent to the non-treated area) to 100 (complete kill)

In data set [2] the test system is persian speedwell (Veronica persica Poir.). The experiment in a line: Test Example 6: foliar treatment of potted persian speedwell, visual growth inhibition rate. The note with it: 14th day after treatment, read-out: Growth inhibition rate (%) of persian speedwell Measured value. Here is the method:
Upland field soil was put into a 1/1,000,000 ha pot, and seeds of persian speedwell (Veronica persica Poir.) were sown. When the persian speedwell reached 4.3 to 5.2-leaf stage, predetermined amounts of EC formulation containing pyridate as an active ingredient and ONEHOPE NYUZAI (tradename) were diluted with water (in an amount corresponding to 300 L/ha) and applied for foliar treatment by a small sprayer.
On the 14th day after treatment, the state of growth of the persian speedwell was visually observed to determine the growth inhibition rate (%). The growth inhibition rate (%) (measured value) and the growth inhibition rate (%) calculated in the same manner as in the above Test Example 1 are shown in Table 6.

Data set [3] has as its system prickly sida (Sida spinosa L.). In words: Test Example 2: foliar treatment of potted prickly sida, visual growth inhibition rate. The note with it: 14th day after treatment, read-out: Growth inhibition rate (%) of prickly sida Measured value. Here is the method:
Upland field soil was put into a 1/1,000,000 ha pot, and seeds of prickly sida (Sida spinosa L.) were sown. When the prickly sida reached 5.5 to 5.8-leaf stage, predetermined amounts of a wettable powder containing pyridate as an active ingredient (tradename: Lentagran WP, manufactured by BCP) and ONEHOPE NYUZAI (tradename) were diluted with water in an amount of corresponding to 1,000 L/ha and applied for foliar treatment by a small sprayer.
On the 14th day after treatment, the state of growth of the prickly sida was visually observed to determine the growth inhibition rate (%). The growth inhibition rate (%) (measured value) and the growth inhibition rate (%) calculated in the same manner as in the above Test Example 1 are shown in Table 2.

The subject of data set [4] is summer grass (Digitaria ciliaris (Retz.) Koeler). The experiment in a line: Test Example 8: foliar treatment of potted summer grass, visual growth inhibition rate on 14th day. The conditions noted are these: read-out: Growth inhibition rate (%) of summer grass Measured value. From the text:
Upland field soil was put into a 1/1,000,000 ha pot, and seeds of summer grass (Digitaria ciliaris (Retz.) Koeler) were sown.

Data set [5] relates to manilagrass (Zoysia matrella (L.) Merr.). In words: Test Example 10: foliar treatment of manilagrass turf, visual growth inhibition rate (safety for turfgrass). The conditions noted are these: for Growth inhibition rate (%) of manilagrass: foliar, 28th day after treatment. How it is done: (§1) Upland field soil was put into a 1/1,000,000 ha pot, and rhizomes of green kyllinga (Kyllinga brevifolia Rottb. var. leiolepis) were planted. When the green kyllinga reached a height of from 6 to 7 cm, predetermined amounts of Lentagran WP (tradename) and WG formulation containing as an active ingredient amicarbazone having the same mode of action as pyridate (tradename: Dinamic, manufactured by Arysta Life Science) were diluted with water (in an amount corresponding to 2,000 L/ha) and applied for foliar treatment by a small sprayer. Separately, upland field soil was put into a 1/300,000 ha pot, and turf of manilagrass (Zoysia matrella (L.) Merr.) was put. After the manilagrass took root, predetermined amounts of Lentagran WP (tradename) and Dinamic (tradename) were diluted with water (in an amount corresponding to 2,000 L/ha) and applied for foliar treatment by a small sprayer.
(§2) On the 27th day after treatment, the state of growth of green kyllinga was visually observed, and on the 28th day after treatment, the state of growth of the manilagrass was visually observed, to determine the growth inhibition rate (%).

Data set [6] concerns green kyllinga (Kyllinga brevifolia Rottb. var. leiolepis). In words: Test Example 10: foliar treatment of green kyllinga (height 6 to 7 cm), visual growth inhibition rate. The note with it: 27th day after treatment. How it is done: as §1, §2
In data set [7] the test system is summer grass (Digitaria ciliaris (Retz.) Koeler). In words: Test Example 7: foliar treatment of potted summer grass, visual growth inhibition rate on 7th day. The conditions noted are these: 7th day after treatment. How it is done:
Upland field soil was put into a 1/1,000,000 ha pot, and seeds of summer grass (Digitaria ciliaris (Retz.) Koeler) were sown. When the summer grass reached 4.0 to 5.0-leaf stage, predetermined amounts of EC formulation containing pyridate as an active ingredient and Monument WG (tradename) were diluted with water (in an amount corresponding to 300 L/ha) and applied for foliar treatment by a small sprayer.
On the 7th day after treatment, the state of growth of the summer grass was visually observed to determine the growth inhibition rate (%). The growth inhibition rate (%) (measured value) and the growth inhibition rate (%) calculated in the same manner as in the above Test Example 1 are shown in Table 7.

Data set [8] relates to green kyllinga (Kyllinga brevifolia Rottb. var. leiolepis). In words: Test Example 4: single or repeated foliar treatment of green kyllinga (height 5 to 7 cm), visual growth inhibition rate. The conditions noted are these: Cyperus brevifolius, 21st day after first treatment. How it is done: Upland field soil was put into a 1/1,000,000 ha pot, and rhizomes of green kyllinga (Kyllinga brevifolia Rottb. var. leiolepis) were planted. When the green kyllinga reached a height of from 5 to 7 cm, a predetermined amount of EC formulation containing pyridate as an active ingredient was diluted with water (in an amount corresponding to 2,000 L/ha) and applied for foliar treatment by a small sprayer. Further, on the 7th day after the foliar treatment, second treatment was carried out in the same manner on part of the green kyllinga.
On the 21st day after the first treatment, the state of growth of the green kyllinga was visually observed to determine the growth inhibition rate (%).

For data set [9] the test system is unchanged. In words: Test Example 5: autumn foliar treatment of green kyllinga, visual growth inhibition rate on 220th day. The conditions noted are these: Cyperus brevifolius, 220th day after treatment. Here is the method: Upland field soil was put into a 1/300,000 ha pot, and rhizomes of green kyllinga (Kyllinga brevifolia Rottb. var. leiolepis) were planted. In the autumn of the next year, a predetermined amount of EC formulation containing pyridate as an active ingredient was diluted with water (in an amount corresponding to 2,000 L/ha) and applied for foliar treatment by a small sprayer.
On the 220th day after treatment, the state of growth of the green kyllinga was visually observed to determine the growth inhibition rate (%).

The test system is the same in data set [10]. The experiment in a line: Test Example 3: foliar treatment of green kyllinga at 5-leaf stage, visual growth inhibition rate. The note with it: Cyperus brevifolius, 21st day after treatment. How it is done:
Upland field soil was put into a 1/1,000,000 ha pot, and rhizomes of green kyllinga (Kyllinga brevifolia Rottb. var. leiolepis) were planted. When the green kyllinga reached 5-leaf stage, a predetermined amount of EC formulation containing pyridate as an active ingredient was diluted with water (in an amount corresponding to 2,000 L/ha) and applied for foliar treatment by a small sprayer.
On the 21st day after treatment, the state of growth of the green kyllinga was visually observed to determine the growth inhibition rate (%).

Where [11] appears, read: Cyperus brevifolius, read-out: Growth inhibition rate (%) of green kyllinga Measured value.

For orientation: inhibition means how much of the control response was suppressed. With `COc1cc(OC)nc(NC(=O)NS(=O)(=O)c2ncccc2C(=O)N(C)C)n1` [Nicosulfuron, 2-(4,6-dimethoxypyrimidin-2-ylcarbamoylsulfamoyl)-N,N-dimethylnicotinamide], the inhibition at 80 g/ha in data set [1] (Cyperus brevifolius, dose 80 g/ha, 14th day after treatment, read-out: Growth inhibition rate (%) of green kyllinga Measured value) was 15%. Further, the inhibition at 100 g/ha in data set [2] (dose 100 g/ha) was 5%. In addition, the inhibition at 15 g/ha in data set [3] (dose 15 g/ha) came out at 30%.
In the case of `COc1cc(OC)nc(NC(=O)NS(=O)(=O)c2ncccc2C(F)(F)F)n1` [Flazasulfuron, 1-(4,6-dimethoxypyrimidin-2-yl)-3-(3-trifluoromethyl-2-pyridylsulfonyl)urea], in data set [1] (Cyperus brevifolius, dose 50 g/ha, 14th day after treatment, read-out: Growth inhibition rate (%) of green kyllinga Measured value), the inhibition at 50 g/ha came out at 33%.
Regarding `CCOC(=O)c1ccccc1S(=O)(=O)NC(=O)Nc1nc(Cl)cc(OC)n1` [Chlorimuron-ethyl, chlorimuron-ethyl], the inhibition at 100 g/ha in data set [1] (setting [11]) turned out to be 18%.
With `COC(=O)c1c(Cl)nn(C)c1S(=O)(=O)NC(=O)Nc1nc(OC)cc(OC)n1` [Halosulfuron-methyl, halosulfuron-methyl], the inhibition at 375 g/ha in data set [1] (setting [11]) worked out at 10%. In data set [4], the inhibition at 150 g/ha was found to be 0%.
On to `CC(C)c1nn(C(=O)NC(C)(C)C)c(=O)n1N` [Amicarbazone, amicarbazone], for which the “Growth inhibition rate (%) of manilagrass” value in data set [5] (dose 800 g/ha) is on record as 30%. The “Growth inhibition rate (%) of green kyllinga” value in data set [6] (dose 400 g/ha) was 30%; in data set [6] (dose 800 g/ha), 86%.
Turning to `COc1cc(OC)nc(NC(=O)NS(=O)(=O)c2ncccc2OCC(F)(F)F)n1` [Trifloxysulfuron Na salt], in [1] (dose 45 g/ha, 14th day after treatment), the “Growth inhibition rate (%) of green kyllinga Measured value” worked out at 15%. In addition, the “Growth inhibition rate (%) of summer grass Measured value” in [7] (dose 100 g/ha) turned out to be 40%.
Regarding `CCCCCCCCSC(=O)Oc1cc(Cl)nnc1-c1ccccc1` [Pyridate, O-6-chloro-3-phenylpyridazin-4-yl S-octylthiocarbonate], in [1] (Cyperus brevifolius, dose 500 g/ha, 14th day after treatment, read-out: Growth inhibition rate (%) of green kyllinga Measured value), the inhibition at 500 g/ha came to 18%. Further, the inhibition at 2000 g/ha in data set [1] (Cyperus brevifolius, dose 2000 g/ha, 14th day after treatment, read-out: Growth inhibition rate (%) of green kyllinga Measured value) was 50%; in data set [9] (dose 2000 g/ha), 100%; in data set [6] (Cyperus brevifolius, dose 2000 g/ha), 76%. For the same compound, the inhibition at 1200 g/ha in [8] (1st treatment 1200 g/ha, 2nd treatment 1200 g/ha on 7th day) came out at 100%; in data set [10] (dose 1200 g/ha) it was 90%. Further, the inhibition at 2400 g/ha in data set [8] (1st treatment 2400 g/ha, no 2nd treatment) worked out at 87%; in data set [10] (dose 2400 g/ha), 100%. In data set [8] (1st treatment 3600 g/ha, no 2nd treatment), this compound showed an inhibition at 3600 g/ha of 89%. Also, the inhibition at 4000 g/ha in data set [9] (dose 4000 g/ha) worked out at 100%; in data set [6] (Cyperus brevifolius, dose 4000 g/ha), 94%. For the same compound, the “Growth inhibition rate (%) of manilagrass” value in [5] (dose 2000 g/ha) was determined as 5%; in [5] (dose 4000 g/ha), 15%; in [5] (dose 8000 g/ha), 15%. The safety for turfgrass entry in data set [5] (practical doses, summary of Table 9) is reported as “high safety for turfgrass”. In addition, the inhibition at 300 g/ha in data set [2] (dose 300 g/ha) was found to be 70%; in data set [3] (dose 300 g/ha), 38%; in [7] (Digitaria ciliaris, dose 300 g/ha, read-out: Growth inhibition rate (%) of summer grass Measured value), 8%. In addition, in data set [4] (dose 3000 g/ha, 14th day after treatment), the inhibition at 3000 g/ha was determined as 50%.
